Columns and labels:
[1] = target: Non-receptor tyrosine-protein kinase TNK1 (Homo sapiens) (UniProt Q13470); settings: Compound concentration 1000.0 nM
[2] = target: Bone morphogenetic protein receptor type-2 (Homo sapiens) (UniProt Q13873); settings: Compound concentration 1000.0 nM
[3] = target: STE20-like serine/threonine-protein kinase (Homo sapiens) (UniProt Q9H2G2); settings: Compound concentration 1000.0 nM
[4] = target: Ribosomal protein S6 kinase alpha-2 (Homo sapiens) (UniProt Q15349); settings: Compound concentration 1000.0 nM
Ribosomal protein S6 kinase alpha-2 (Homo sapiens), sequence (Q15349 whole entry): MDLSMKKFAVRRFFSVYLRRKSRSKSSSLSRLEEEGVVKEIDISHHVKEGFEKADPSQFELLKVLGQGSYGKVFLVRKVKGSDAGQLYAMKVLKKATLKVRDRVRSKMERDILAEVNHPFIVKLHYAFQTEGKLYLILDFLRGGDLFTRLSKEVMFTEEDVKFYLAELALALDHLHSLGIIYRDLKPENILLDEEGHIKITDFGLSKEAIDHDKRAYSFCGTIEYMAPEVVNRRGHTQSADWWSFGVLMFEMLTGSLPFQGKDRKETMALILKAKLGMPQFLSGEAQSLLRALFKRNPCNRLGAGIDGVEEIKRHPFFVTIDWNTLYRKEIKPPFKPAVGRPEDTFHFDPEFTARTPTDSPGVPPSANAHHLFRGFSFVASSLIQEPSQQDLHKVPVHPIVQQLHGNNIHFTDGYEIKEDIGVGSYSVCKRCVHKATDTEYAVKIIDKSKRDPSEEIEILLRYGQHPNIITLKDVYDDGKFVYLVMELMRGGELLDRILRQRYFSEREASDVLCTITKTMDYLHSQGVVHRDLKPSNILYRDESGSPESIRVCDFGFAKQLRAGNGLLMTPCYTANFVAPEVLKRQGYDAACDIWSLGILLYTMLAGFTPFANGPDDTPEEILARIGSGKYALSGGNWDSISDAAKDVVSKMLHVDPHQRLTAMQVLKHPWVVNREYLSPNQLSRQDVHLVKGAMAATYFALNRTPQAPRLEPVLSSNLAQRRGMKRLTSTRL

[5] = target: Calcium-dependent protein kinase 1 (Plasmodium falciparum) (UniProt P62344); settings: Compound concentration 1000.0 nM
[6] = target: Proto-oncogene tyrosine-protein kinase ROS (Homo sapiens) (UniProt P08922); settings: Compound concentration 1000.0 nM
[7] = target: Dual specificity testis-specific protein kinase 1 (Homo sapiens) (UniProt Q15569); settings: Compound concentration 1000.0 nM
[8] = target: Aurora kinase B (Homo sapiens) (UniProt Q96GD4); settings: Compound concentration 1000.0 nM
Aurora kinase B (Homo sapiens), sequence (Q96GD4 whole entry): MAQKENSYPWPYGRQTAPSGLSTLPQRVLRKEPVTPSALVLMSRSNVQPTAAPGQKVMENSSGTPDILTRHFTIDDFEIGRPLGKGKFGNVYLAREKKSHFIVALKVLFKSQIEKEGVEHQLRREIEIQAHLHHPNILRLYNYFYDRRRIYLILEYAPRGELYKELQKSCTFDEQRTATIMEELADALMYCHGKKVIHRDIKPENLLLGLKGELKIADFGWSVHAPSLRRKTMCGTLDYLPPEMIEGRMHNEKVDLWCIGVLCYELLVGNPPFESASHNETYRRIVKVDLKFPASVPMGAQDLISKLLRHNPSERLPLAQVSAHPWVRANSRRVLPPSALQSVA

[9] = target: Histamine H2 receptor (Homo sapiens) (UniProt P25021); settings: Compound concentration 10.0 uM
[10] = tested on: GABA-B receptor (GABBR1, rat); assay: GABAB/RA Eurofins-Panlabs selectivity data (BI); settings: Compound concentration 10.0 uM
[11] = tested on: ALK tyrosine kinase receptor (Homo sapiens), Q9UM73 [L1196M]; settings: Compound concentration 1000.0 nM
[12] = target: Serine/threonine-protein kinase LATS1 (Homo sapiens) (UniProt O95835); settings: Compound concentration 1000.0 nM
[13] = target: Dual serine/threonine and tyrosine protein kinase (Homo sapiens) (UniProt Q6XUX3); settings: Compound concentration 1000.0 nM
[14] = target: 3-hydroxy-3-methylglutaryl-coenzyme A reductase (Rattus norvegicus) (UniProt P51639); assay: HMGCOARED Eurofins-Panlabs selectivity data (BI); settings: Compound concentration 10.0 uM
3-hydroxy-3-methylglutaryl-coenzyme A reductase (Rattus norvegicus), sequence (P51639 whole entry): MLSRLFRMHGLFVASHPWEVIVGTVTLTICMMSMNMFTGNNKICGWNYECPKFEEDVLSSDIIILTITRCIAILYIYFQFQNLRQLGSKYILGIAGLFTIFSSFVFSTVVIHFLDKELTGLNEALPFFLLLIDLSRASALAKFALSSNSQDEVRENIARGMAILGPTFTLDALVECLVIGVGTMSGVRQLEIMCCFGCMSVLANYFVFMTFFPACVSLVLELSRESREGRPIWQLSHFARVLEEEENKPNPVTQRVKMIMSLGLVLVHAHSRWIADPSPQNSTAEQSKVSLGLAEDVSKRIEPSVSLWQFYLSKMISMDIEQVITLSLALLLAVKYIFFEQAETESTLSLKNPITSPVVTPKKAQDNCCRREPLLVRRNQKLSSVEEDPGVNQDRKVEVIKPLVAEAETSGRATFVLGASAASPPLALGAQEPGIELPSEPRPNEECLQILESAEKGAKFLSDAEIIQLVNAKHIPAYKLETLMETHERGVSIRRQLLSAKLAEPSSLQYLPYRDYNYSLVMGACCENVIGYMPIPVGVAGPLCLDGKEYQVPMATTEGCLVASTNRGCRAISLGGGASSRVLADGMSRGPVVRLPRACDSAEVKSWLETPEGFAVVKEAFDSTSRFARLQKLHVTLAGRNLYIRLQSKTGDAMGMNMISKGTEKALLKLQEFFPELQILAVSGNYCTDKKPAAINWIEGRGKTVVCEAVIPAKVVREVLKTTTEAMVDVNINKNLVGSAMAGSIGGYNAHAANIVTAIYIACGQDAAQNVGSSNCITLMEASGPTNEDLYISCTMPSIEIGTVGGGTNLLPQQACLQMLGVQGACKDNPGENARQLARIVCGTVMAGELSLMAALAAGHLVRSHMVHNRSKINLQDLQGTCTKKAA

[15] = target: Cyclin-dependent kinase 13 (Homo sapiens) (UniProt Q14004); settings: Compound concentration 1000.0 nM
[16] = target: MAP/microtubule affinity-regulating kinase 4 (Homo sapiens) (UniProt Q96L34); settings: Compound concentration 1000.0 nM
MAP/microtubule affinity-regulating kinase 4 (Homo sapiens), sequence (Q96L34 whole entry, canonical isoform): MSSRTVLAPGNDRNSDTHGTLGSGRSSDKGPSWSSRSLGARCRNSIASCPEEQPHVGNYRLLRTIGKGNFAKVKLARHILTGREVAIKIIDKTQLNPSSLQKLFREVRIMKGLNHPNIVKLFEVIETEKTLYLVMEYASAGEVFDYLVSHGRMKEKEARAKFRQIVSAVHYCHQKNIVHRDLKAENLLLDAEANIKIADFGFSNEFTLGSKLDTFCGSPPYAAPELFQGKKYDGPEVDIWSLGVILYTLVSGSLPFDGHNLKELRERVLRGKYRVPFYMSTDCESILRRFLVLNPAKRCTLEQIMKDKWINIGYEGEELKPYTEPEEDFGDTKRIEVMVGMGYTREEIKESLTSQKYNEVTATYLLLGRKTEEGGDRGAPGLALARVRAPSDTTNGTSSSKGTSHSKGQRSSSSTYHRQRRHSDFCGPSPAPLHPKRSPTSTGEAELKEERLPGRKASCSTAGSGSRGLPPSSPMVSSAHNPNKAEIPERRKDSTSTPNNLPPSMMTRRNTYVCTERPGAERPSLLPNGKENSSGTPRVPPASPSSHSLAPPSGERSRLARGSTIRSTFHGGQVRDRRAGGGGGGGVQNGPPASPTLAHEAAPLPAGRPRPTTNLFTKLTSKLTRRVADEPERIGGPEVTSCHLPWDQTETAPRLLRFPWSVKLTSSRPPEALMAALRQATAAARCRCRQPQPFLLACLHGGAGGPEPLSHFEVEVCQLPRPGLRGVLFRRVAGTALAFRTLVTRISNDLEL

[17] = tested on: Phosphatidylinositol 4,5-bisphosphate 3-kinase catalytic subunit alpha isoform (Homo sapiens), P42336 [H1047Y]; settings: Compound concentration 1000.0 nM
[18] = target: Serine/threonine-protein kinase PAK 3 (Homo sapiens) (UniProt O75914); settings: Compound concentration 1000.0 nM
[19] = target: Mitotic checkpoint serine/threonine-protein kinase BUB1 (Homo sapiens) (UniProt O43683); settings: Compound concentration 1000.0 nM
[20] = target: Receptor tyrosine-protein kinase erbB-4 (Homo sapiens) (UniProt Q15303); settings: Compound concentration 1000.0 nM
[21] = target: TRAF2 and NCK-interacting protein kinase (Homo sapiens) (UniProt Q9UKE5); settings: Compound concentration 1000.0 nM
[22] = target: Serine/threonine-protein kinase 38-like (Homo sapiens) (UniProt Q9Y2H1); settings: Compound concentration 1000.0 nM
[23] = target: Tyrosine-protein kinase JAK3 (Homo sapiens) (UniProt P52333); settings: Compound concentration 1000.0 nM
[24] = target: Beta-1 adrenergic receptor (Homo sapiens) (UniProt P08588); settings: Compound concentration 10.0 uM
[25] = target: Phosphatidylinositol 4,5-bisphosphate 3-kinase catalytic subunit delta isoform (Homo sapiens) (UniProt O00329); settings: Compound concentration 1000.0 nM
Phosphatidylinositol 4,5-bisphosphate 3-kinase catalytic subunit delta isoform (Homo sapiens), sequence (O00329 whole entry, canonical isoform): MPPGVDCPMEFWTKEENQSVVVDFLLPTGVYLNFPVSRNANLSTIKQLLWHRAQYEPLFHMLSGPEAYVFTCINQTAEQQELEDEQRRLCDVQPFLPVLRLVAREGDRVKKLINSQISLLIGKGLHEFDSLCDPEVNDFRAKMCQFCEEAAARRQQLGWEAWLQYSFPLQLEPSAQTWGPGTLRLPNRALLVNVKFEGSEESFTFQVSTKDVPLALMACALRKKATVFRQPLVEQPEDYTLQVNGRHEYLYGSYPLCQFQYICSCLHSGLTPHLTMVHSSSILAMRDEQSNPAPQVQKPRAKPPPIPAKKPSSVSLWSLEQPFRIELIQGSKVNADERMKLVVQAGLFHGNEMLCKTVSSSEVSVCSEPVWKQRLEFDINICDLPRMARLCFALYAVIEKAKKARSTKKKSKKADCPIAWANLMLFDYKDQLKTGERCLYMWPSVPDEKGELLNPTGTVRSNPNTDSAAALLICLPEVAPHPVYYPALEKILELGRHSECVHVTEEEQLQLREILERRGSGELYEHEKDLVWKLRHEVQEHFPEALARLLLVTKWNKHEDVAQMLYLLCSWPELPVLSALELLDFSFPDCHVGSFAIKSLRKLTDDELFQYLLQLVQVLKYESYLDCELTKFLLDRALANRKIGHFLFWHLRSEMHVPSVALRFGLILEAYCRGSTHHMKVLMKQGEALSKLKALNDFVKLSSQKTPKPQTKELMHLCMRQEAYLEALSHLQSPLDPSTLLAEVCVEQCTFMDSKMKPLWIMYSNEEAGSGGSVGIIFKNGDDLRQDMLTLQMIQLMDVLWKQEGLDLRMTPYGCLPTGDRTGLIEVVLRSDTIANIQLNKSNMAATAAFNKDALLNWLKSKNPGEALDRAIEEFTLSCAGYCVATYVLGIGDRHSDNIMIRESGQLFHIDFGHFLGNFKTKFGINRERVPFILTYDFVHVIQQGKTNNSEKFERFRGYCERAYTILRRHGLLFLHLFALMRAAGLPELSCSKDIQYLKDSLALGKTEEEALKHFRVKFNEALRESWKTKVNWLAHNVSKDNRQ

[26] = target: Activin receptor type-1 (Homo sapiens) (UniProt Q04771); settings: Compound concentration 1000.0 nM
[27] = target: Interleukin-1 receptor-associated kinase 3 (Homo sapiens) (UniProt Q9Y616); settings: Compound concentration 1000.0 nM
[28] = target: T1, 5-hydroxytryptamine receptor 3A (Homo sapiens) (UniProt P46098); settings: Compound concentration 10.0 uM
T1 sequence (whole entry): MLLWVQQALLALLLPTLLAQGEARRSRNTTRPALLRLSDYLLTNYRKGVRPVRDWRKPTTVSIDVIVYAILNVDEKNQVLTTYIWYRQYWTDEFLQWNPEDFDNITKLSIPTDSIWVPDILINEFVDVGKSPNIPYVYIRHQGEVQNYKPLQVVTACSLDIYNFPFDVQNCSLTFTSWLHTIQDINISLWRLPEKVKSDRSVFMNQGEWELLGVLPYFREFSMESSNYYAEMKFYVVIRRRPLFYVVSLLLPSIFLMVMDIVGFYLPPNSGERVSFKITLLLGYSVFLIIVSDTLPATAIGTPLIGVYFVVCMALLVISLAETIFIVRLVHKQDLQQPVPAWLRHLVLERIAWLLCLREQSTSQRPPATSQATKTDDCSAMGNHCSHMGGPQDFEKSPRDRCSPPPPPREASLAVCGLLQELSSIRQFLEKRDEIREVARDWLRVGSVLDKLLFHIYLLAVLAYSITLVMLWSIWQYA

[29] = tested on: Mast/stem cell growth factor receptor Kit (Homo sapiens), P10721 [V559D,T670I]; settings: Compound concentration 1000.0 nM
Mast/stem cell growth factor receptor Kit (Homo sapiens), P10721 [V559D,T670I], sequence (P10721 whole entry V559D/T670I): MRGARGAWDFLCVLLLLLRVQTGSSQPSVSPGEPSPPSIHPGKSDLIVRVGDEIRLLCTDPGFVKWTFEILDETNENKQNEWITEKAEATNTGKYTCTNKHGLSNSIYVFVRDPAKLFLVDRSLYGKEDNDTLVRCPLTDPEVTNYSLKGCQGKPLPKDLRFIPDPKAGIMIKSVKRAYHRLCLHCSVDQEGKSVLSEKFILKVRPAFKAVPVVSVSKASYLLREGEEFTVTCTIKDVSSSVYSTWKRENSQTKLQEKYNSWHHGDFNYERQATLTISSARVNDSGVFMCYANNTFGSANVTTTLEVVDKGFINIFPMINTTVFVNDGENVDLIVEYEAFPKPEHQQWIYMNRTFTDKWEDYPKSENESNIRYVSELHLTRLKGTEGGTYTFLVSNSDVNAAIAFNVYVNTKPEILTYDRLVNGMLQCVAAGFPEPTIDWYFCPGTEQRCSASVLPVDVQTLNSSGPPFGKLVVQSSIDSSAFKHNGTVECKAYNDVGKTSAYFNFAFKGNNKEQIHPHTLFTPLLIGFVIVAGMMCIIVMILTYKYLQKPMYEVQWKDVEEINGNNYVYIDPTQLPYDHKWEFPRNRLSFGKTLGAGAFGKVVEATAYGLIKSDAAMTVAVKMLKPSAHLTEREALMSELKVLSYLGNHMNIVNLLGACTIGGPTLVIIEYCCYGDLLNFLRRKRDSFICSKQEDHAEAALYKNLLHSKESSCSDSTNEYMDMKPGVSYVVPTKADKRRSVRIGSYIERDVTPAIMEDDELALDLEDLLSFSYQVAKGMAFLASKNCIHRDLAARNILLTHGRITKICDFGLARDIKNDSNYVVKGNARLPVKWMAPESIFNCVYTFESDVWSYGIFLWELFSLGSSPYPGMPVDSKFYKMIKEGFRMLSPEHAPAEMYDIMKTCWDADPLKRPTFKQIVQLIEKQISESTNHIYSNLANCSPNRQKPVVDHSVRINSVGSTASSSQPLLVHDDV

[30] = target: Serine/threonine-protein kinase PAK 1 (Homo sapiens) (UniProt Q13153); settings: Compound concentration 1000.0 nM
[31] = target: Uncharacterized serine/threonine-protein kinase SBK3 (Homo sapiens) (UniProt P0C264); settings: Compound concentration 1000.0 nM
[32] = target: 5-hydroxytryptamine receptor 1A (Homo sapiens) (UniProt P08908); settings: Compound concentration 10.0 uM
[33] = tested on: Phosphatidylinositol 4,5-bisphosphate 3-kinase catalytic subunit alpha isoform (Homo sapiens), P42336 [M1043I]; settings: Compound concentration 1000.0 nM
[34] = target: SRSF protein kinase 3 (Homo sapiens) (UniProt Q9UPE1); settings: Compound concentration 1000.0 nM
[35] = target: Transient receptor potential cation channel subfamily M member 6 (Homo sapiens) (UniProt Q9BX84); settings: Compound concentration 1000.0 nM
[36] = target: Tyrosine-protein kinase SYK (Homo sapiens) (UniProt P43405); settings: Compound concentration 1000.0 nM
[37] = target: Phosphatidylinositol 4,5-bisphosphate 3-kinase catalytic subunit beta isoform (Homo sapiens) (UniProt P42338); settings: Compound concentration 1000.0 nM
[38] = target: High affinity nerve growth factor receptor (Homo sapiens) (UniProt P04629); settings: Compound concentration 1000.0 nM

CCOCCn1cc(C(=O)Nc2ccc(-n3nc(-c4cccnc4)cc3C(F)(F)F)cn2)ccc1=O [BI 1935]
inactive: residual activity [1] 83% | residual activity [2] 100% | residual activity [3] 100% | residual activity [4] 89% | residual activity [5] 71% | residual activity [6] 100% | residual activity [7] 85% | residual activity [8] 100% | inhibition [9] -3.48% | residual activity [10] 94% | residual activity [11] 73% | residual activity [12] 69% | residual activity [13] 61% | residual activity [14] 87% | residual activity [15] 92% | residual activity [16] 100% | residual activity [17] 100% | residual activity [18] 100% | residual activity [19] 79% | residual activity [20] 100% | residual activity [21] 100% | residual activity [22] 66% | residual activity [23] 100% | inhibition [24] -9.69% | residual activity [25] 100% | residual activity [26] 75% | residual activity [27] 100% | inhibition [28] 2.27% | residual activity [29] 100% | residual activity [30] 96% | residual activity [31] 78% | inhibition [32] 13.9% | residual activity [33] 100% | residual activity [34] 100% | residual activity [35] 73% | residual activity [36] 100% | residual activity [37] 82% | residual activity [38] 100%

Reference: ChEMBL document CHEMBL4507283, “Data for DCP probe BI-1935” (2021)
